Data reported in patent US9315546B2, “Growth hormone secretatogue receptor antagonists and uses thereof” (The Administrators of the Tulane Educational Fund, priority 2010, dated 2016).
Blank lines part the entries; values can stand above or below the substance they belong to. Where no end group is shown, it is not given here. [ ]: non-standard residue; d: D form. d2Nal = N[C@H](Cc1ccc2ccccc2c1)C(=O)O; Orn = NCCC[C@H](N)C(=O)O; GABA = NCCCC(=O)O

Target: Ghrelin/GHRP/GHS Receptor (Rattus norvegicus, UniProt O08725)
Sequence (O08725 whole entry): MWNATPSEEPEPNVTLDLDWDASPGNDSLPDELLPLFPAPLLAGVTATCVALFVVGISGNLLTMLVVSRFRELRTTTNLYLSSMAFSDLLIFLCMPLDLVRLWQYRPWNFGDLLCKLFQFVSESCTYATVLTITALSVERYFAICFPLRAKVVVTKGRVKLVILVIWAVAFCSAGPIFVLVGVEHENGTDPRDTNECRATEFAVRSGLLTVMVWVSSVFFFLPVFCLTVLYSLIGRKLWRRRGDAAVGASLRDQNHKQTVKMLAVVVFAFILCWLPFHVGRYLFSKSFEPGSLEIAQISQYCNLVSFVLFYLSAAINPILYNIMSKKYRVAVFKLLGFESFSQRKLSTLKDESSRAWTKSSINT
Assay: In vivo GH release in rat after i.v. peptide (serum GH by RIA)
Conditions: for Stimulated GH release (P + S) / Unstimulated GH release (−S): Pentobarbital Rats
Method: For the in vivo assay of GH Release in rat, immature female Sprague Dawley rats were obtained from Charles River from Wilmington, Mass. After arrival they were housed at 25° C. with a 14:10 h light:dark cycle. Water and Purina rat chow were available at libitum. Pups were weaned at 21 days of age.
Immature twenty six day old female Sprague Dawley rats, 3-6 rats per treatment dose, were pretreated with pentobarbital 20 minutes before iv injection of vehicle/peptide or peptide plus stimulator. Injection was made as a 0.1 ml solution. For the non-pentobarbital treated rat assay, peptides were administered iv into the tail vein of conscious rats. All animals were sacrificed by guillotine after iv peptide or vehicle. Trunk blood was collected at +10-15 minutes […], allowed to clot, centrifuged and serum stored until assayed for GH levels by RIA. The GH RIA reagents were distributed by the NIH. Control data was collected from rats treated with only the corresponding vehicle in the absence of peptide or stimulator. Control stimulated data was collected from rats treated with stimulator alone in the absence of any peptide.

[1] = Table 5, peptide alone 1 μg i.v.
[2] = Table 5, peptide alone 3 μg i.v.
[3] = Table 5, peptide alone 10 μg i.v.
[4] = Table 5, peptide alone 30 μg i.v.
[5] = peptide antagonist 3 μg i.v. + stimulator 1 μg
[6] = peptide antagonist 10 μg i.v. + stimulator 1 μg
[7] = peptide antagonist 30 μg i.v. + stimulator 1 μg
[8] = peptide antagonist 100 μg i.v. + stimulator 1 μg
[9] = Table 3, peptide alone 3 μg i.v.
[10] = Table 3, peptide alone 10 μg i.v.
[11] = Table 3, peptide alone 30 μg i.v.
[12] = Table 3, peptide alone 100 μg i.v.
[13] = Table 3, peptide alone 1 μg i.v.

Unstimulated Basal GH release [1]: 57 ± 7 ng/mL | Unstimulated Basal GH release [2]: 84 ± 18 ng/mL | Unstimulated Basal GH release [3]: 62 ± 15 ng/mL
Substance: αγAbu-DTrp-DTrp-Lys-NH2 [2-αγAbu-DTrp-DTrp-Lys-NH2]

Unstimulated Basal GH release [3]: 228 ± 76 ng/mL | Unstimulated Basal GH release [4]: 172 ± 14 ng/mL | Unstimulated Basal GH release (Table 5, peptide alone 100 μg i.v.): 153 ± 45 ng/mL
Substance: [dA]A[dA][dW]FK-NH2 [6-DAla-Ala-DAla-DTrp-Phe-Lys-NH2]

Stimulated GH release [5]: 2771 ± 157 ng/mL | Stimulated GH release [6]: 2341 ± 416 ng/mL | Stimulated GH release [7]: 1948 ± 450 ng/mL | Stimulated GH release [8]: 1639 ± 221 ng/mL
Substance: Alaψ[CH2NH]-DβNal-Ala-Trp-DPhe-Lys-NH2 [6-Alaψ[CH2NH]-DβNal-Ala-Trp-DPhe-Lys-NH2]

Stimulated GH release (peptide antagonist 1 μg i.v. + stimulator 1 μg): 2305 ± 320 ng/mL | Stimulated GH release [5]: 1990 ± 196 ng/mL | Stimulated GH release [6]: 1550 ± 284 ng/mL | Stimulated GH release [7]: 946 ± 133 ng/mL | Stimulated GH release [8]: 462 ± 122 ng/mL
Substance: Glyψ[CH2NH]-DβNal-DLys-Trp-DPhe-Lys-NH2

Unstimulated Basal GH release [1]: 60 ± 5 ng/mL | Unstimulated Basal GH release [2]: 130 ± 24 ng/mL | Unstimulated Basal GH release [3]: 134 ± 31 ng/mL
Substance: DThr-DαNal-DTrp-DPro-Arg-NH2 [5-DThr-DαNal-DTrp-DPro-Arg-NH2]

Unstimulated Basal GH release [1]: 85 ± 25 ng/mL | Unstimulated Basal GH release [3]: 88 ± 18 ng/mL | Unstimulated Basal GH release [4]: 50 ± 6 ng/mL
Substance: αAbu-DTrp-DTrp-Orn-NH2 [4-αAbu-DTrp-DTrp-Orn-NH2]

Substance: [dK][d2Nal]AW[dF]K-NH2 [1-DLys-DβNal-Ala-Trp-DPhe-Lys-NH2]
Stimulated GH release (P + S) (peptide 3 μg i.v. (grid head; alignment uncertain) + stimulator 0.3 μg): 5232 ± 346 ng/mL | Stimulated GH release (P + S) (peptide 10 μg i.v. (grid head; alignment uncertain) + stimulator 0.3 μg): 3404 ± 396 ng/mL | Stimulated GH release (P + S) (peptide 30 μg i.v. + stimulator 0.3 μg): 704 ± 169 ng/mL | Unstimulated GH release (−S) (peptide alone 3 μg i.v. (grid head; alignment uncertain)): 616 ± 169 ng/mL | Unstimulated GH release (−S) (peptide alone 10 μg i.v. (grid head; alignment uncertain)): 847 ± 17 ng/mL | Unstimulated GH release (−S) (peptide alone 30 μg i.v.): 629 ± 146 ng/mL | Unstimulated GH release (−S) (peptide alone 100 μg i.v.): 228 ± 45 ng/mL

Unstimulated Basal GH release [9]: 235 ± 43 ng/mL | Unstimulated Basal GH release [10]: 178 ± 33 ng/mL | Unstimulated Basal GH release [11]: 172 ± 15 ng/mL | Unstimulated Basal GH release [12]: 185 ± 39 ng/mL
Substance: DAla-DβNal-Ala-Ala-DAla-Lys-NH2 [6-DAla-DβNal-Ala-Ala-DAla-Lys-NH2]

Unstimulated Basal GH release [13]: 204 ± 44 ng/mL | Unstimulated Basal GH release [9]: 127 ± 44 ng/mL | Unstimulated Basal GH release [10]: 83 ± 5 ng/mL
Substance: HW[dA][dW]FK-NH2 [11-His-Trp-DAla-DTrp-Phe-LysNH2]

Unstimulated Basal GH release [1]: 82 ± 28 ng/mL | Unstimulated Basal GH release [3]: 90 ± 5 ng/mL | Unstimulated Basal GH release [4]: 113 ± 32 ng/mL
Substance: [GABA][dW][dW][Orn]-NH2 [9-γAbu-DTrp-DTrp-Orn-NH2]

Unstimulated Basal GH release [3]: 121 ± 24 ng/mL
Substance: K[dH][dW]F-NH2 [8-Lys-DHis-DTrp-Phe-NH2]

Unstimulated Basal GH release [9]: 253 ± 79 ng/mL | Unstimulated Basal GH release [10]: 277 ± 43 ng/mL | Unstimulated Basal GH release [11]: 347 ± 66 ng/mL | Unstimulated Basal GH release [12]: 645 ± 117 ng/mL
Substance: [d2Nal]AW[dF]L-NH2 [7-DβNal-Ala-Trp-DPhe-Leu-NH2]

Unstimulated Basal GH release [9]: 181 ± 28 ng/mL | Unstimulated Basal GH release [10]: 237 ± 18 ng/mL | Unstimulated Basal GH release [11]: 354 ± 81 ng/mL | Unstimulated Basal GH release [12]: 771 ± 76 ng/mL
Substance: DcyclohexylAla-Ala-Trp-DPhe-NH2 [5-DcyclohexylAla-Ala-Trp-DPhe-NH2]

Unstimulated Basal GH release [13]: 435 ± 152 ng/mL | Unstimulated Basal GH release [9]: 195 ± 34 ng/mL | Unstimulated Basal GH release [10]: 250 ± 41 ng/mL | Unstimulated Basal GH release [11]: 393 ± 51 ng/mL | Unstimulated Basal GH release [12]: 697 ± 75 ng/mL
Substance: DAla-DcyclohexylAla-Ala-Phe-DPhe-Nle-NH2
